Laboratory results reported in PubChem BioAssay AID1963833 (Molecular Pharmacology Branch, DTP, NCI, 2024).

System: 883617-216-R-J1-PDC complex spheroid viability
Test: Anticancer human tumor 883617-216-R-J1-PDC patient-derived bladder carcinoma cell line growth inhibition [POLQ]
Details: for IC50: curve of first compound; for viability, T/C: stronger effect = lower value
Procedure: Multicellular complex tumor spheroid response to Polymerase (POL) inhibitors (novobiocin, ART-558, RP6685) in combination with a variety of drugs and investigational agents in selected tumor cell lines
The POL inhibitors (novobiocin, ART-558, and RP6685) were evaluated both individually and in combination with standard of care and investigational anticancer small molecules within a complex spheroid model of solid tumors. . Complex spheroids include a stromal component modeled by human endothelial cells (HUVEC) and fibroblasts modeled by human mesenchymal stem cells (MSCs). The concentration ranges selected for each drug and investigational agent were based upon clinically achievable concentrations if the clinical Cmax of the agent was known.
Compounds. The drugs and investigational agents: novobiocin (NSC847541), ART-558 (NSC835418), RP-6685 (NSC848927), peposertib (NSC802822), ceralasertib (NSC780249), elimusertib (NSC800525), camonsertib (NSC841442), AZD-1390 (NSC803789), olaparib (NSC753686), talazoparib (NSC767125), rucaparib (NSC756644), sotorasib (NSC818433), MRTX-1133 (NSC836407), SN-38 (NSC673596), topotecan (NSC609699), epotoside (NSC141540), doxorubicin (NSC123127), gemcitabine (NSC613327), 5-fluorouracil (NSC19893), paclitaxel (NSC125973), vemurafenib (NSC761431), MSA-2 (NSC828583), SN-011 (NSC837082), adavosertib (NSC754352), prexasertib (NSC758257), carboplatin (NSC241240) and oxaliplatin (NSC266046), were obtained from the National Cancer Institute (NCI) Developmental Therapeutics Program Chemical Repository (21). The FDA-approved anticancer drug set is available from the Developmental Therapeutics Program at https://dtp.cancer.gov/organization/dscb/obtaining/. […] The stock solutions were prepared in dimethyl sulfoxide (DMSO, Sigma-Aldrich, St. Louis, MO, cat. D2650), except for the platinum compounds which were prepared in saline (Quality Biological, Gaithersburg, MD, cat. 114-055-101), at 800-fold the tested concentration and stored at -70 degrees C prior to their use. All drugs and investigational agents were tested over a range starting from a high concentration at or near the clinical Cmax and decreasing in half-log increments. If the clinical Cmax for an agent had not been determined, the highest concentration tested was 10 microM, except for SN-38, which was tested at a high concentration of 1 microM.
Cell Culture. All cells were maintained in an incubator at 37 degrees C and 5% CO2 with 95% humidity. The PDC lines were cultured according to standard operating procedures established by the NCI PDMR (https://pdmr.cancer.gov). Table 3 of the manuscript, lists the cell lines along with the number of the three cell types plated to form the mct-spheroids and media for tumor cell growth. After thawing, all PDC lines, except 997537-175-T-J1-PDC and 415267-285-R-J2-PDC, were cultured in Matrigel-coated flasks prepared with a working solution of 1X Ham's F-12 nutrient mix, without supplementation (Thermo Fisher Scientific, cat. 11765054), 100 U/mL penicillin-streptomycin (Thermo Fisher Scientific, cat. 15140122), and 2.5% Matrigel (Corning Inc., Corning, NY, cat. 354248) for the first three passages. The two PDC lines 997537-175-T-J1-PDC and 415267-285-R-J2-PDC were cultured on uncoated flasks. The 857933-349-R-J2-PDC line was cultured in 6C/Colon 1B media containing advanced DMEM/F-12 (Thermo Fisher Scientific, cat. 12634028), 10 mM HEPES (Thermo Fisher Scientific, cat. 15630080), 1X GlutaMAX supplement (Thermo Fisher Scientific, cat. 35050061), 0.1 mg/mL primocin (InvivoGen, San Diego, CA, cat. ant-pm-2), 10% defined fetal bovine serum, heat inactivated (HyClone Laboratories Inc., Logan, UT, cat. SH30070.03HI), 50% L-WRN conditioned media (ATCC, cat. CRL-3276), 1.25 mM N-Acetyl-L-cysteine (Sigma-Aldrich, cat. A9165), 10 mM nicotinamide (Sigma-Aldrich, cat. N0636), 1X B-27 supplement (Thermo Fisher Scientific, cat. 17504044), 1X N-2 supplement (Thermo Fisher Scientific, cat. […]
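Note: spheroids exposed to compounds for seven days before readout.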
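Throughout, for viability, T/C: 100% = DMSO vehicle control viability.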

CC(=O)O[C@H]1C(=O)[C@@]2(C)[C@H]([C@H](OC(=O)c3ccccc3)[C@]3(O)C[C@H](OC(=O)[C@H](O)[C@@H](NC(=O)c4ccccc4)c4ccccc4)C(C)=C1C3(C)C)[C@]1(OC(C)=O)CO[C@@H]1C[C@@H]2O + COC1C(OC(N)=O)C(O)C(Oc2ccc3c(O)c(NC(=O)c4ccc(O)c(CC=C(C)C)c4)c(=O)oc3c2C)OC1(C)C
IC50 (second compound 0.0316 µM): < 9.49 nM | IC50 (second compound 0.1 µM): < 9.49 nM | IC50 (second compound 0.316 µM): < 9.49 nM | IC50 (second compound 1 µM): < 9.49 nM | IC50 (second compound 3.16 µM): < 9.49 nM | IC50 (second compound 10 µM): < 9.49 nM | viability, T/C (second compound 0.0316 µM, first compound 0.00949 µM): 39.5% | viability, T/C (second compound 0.0316 µM, first compound 0.03 µM): 27.8% | viability, T/C (second compound 0.0316 µM, first compound 0.0949 µM): 26.4% | viability, T/C (second compound 0.0316 µM, first compound 0.3 µM): 20.8% | viability, T/C (second compound 0.0316 µM, first compound 0.949 µM): 18.2% | viability, T/C (second compound 0.0316 µM, first compound 3 µM): 19.8% | viability, T/C (second compound 0.1 µM, first compound 0.00949 µM): 40.2% | viability, T/C (second compound 0.1 µM, first compound 0.03 µM): 34.2% | viability, T/C (second compound 0.1 µM, first compound 0.0949 µM): 23.4% | viability, T/C (second compound 0.1 µM, first compound 0.3 µM): 23.7% | viability, T/C (second compound 0.1 µM, first compound 0.949 µM): 19.6% | viability, T/C (second compound 0.1 µM, first compound 3 µM): 20.7% | viability, T/C (second compound 0.316 µM, first compound 0.00949 µM): 50.6% | viability, T/C (second compound 0.316 µM, first compound 0.03 µM): 27.9% | viability, T/C (second compound 0.316 µM, first compound 0.0949 µM): 25.4% | viability, T/C (second compound 0.316 µM, first compound 0.3 µM): 17.5% | viability, T/C (second compound 0.316 µM, first compound 0.949 µM): 16.1% | viability, T/C (second compound 0.316 µM, first compound 3 µM): 20.6% | viability, T/C (second compound 1 µM, first compound 0.00949 µM): 42.2% | viability, T/C (second compound 1 µM, first compound 0.03 µM): 28.2% | viability, T/C (second compound 1 µM, first compound 0.0949 µM): 19% | viability, T/C (second compound 1 µM, first compound 0.3 µM): 26% | viability, T/C (second compound 1 µM, first compound 0.949 µM): 20.5% | viability, T/C (second compound 1 µM, first compound 3 µM): 15.9% | viability, T/C (second compound 3.16 µM, first compound 0.00949 µM): 42.7% | viability, T/C (second compound 3.16 µM, first compound 0.03 µM): 31.1% | viability, T/C (second compound 3.16 µM, first compound 0.0949 µM): 21.9% | viability, T/C (second compound 3.16 µM, first compound 0.3 µM): 22.7% | viability, T/C (second compound 3.16 µM, first compound 0.949 µM): 23.7% | viability, T/C (second compound 3.16 µM, first compound 3 µM): 17.1% | viability, T/C (second compound 10 µM, first compound 0.00949 µM): 42.2% | viability, T/C (second compound 10 µM, first compound 0.03 µM): 27.1% | viability, T/C (second compound 10 µM, first compound 0.0949 µM): 15.1% | viability, T/C (second compound 10 µM, first compound 0.3 µM): 16% | viability, T/C (second compound 10 µM, first compound 0.949 µM): 21% | viability, T/C (second compound 10 µM, first compound 3 µM): 21.6%
